# Biological target: SurA (Escherichia coli, UniProt P0ABZ6)
# Assay: Luciferase-based SurA activity assay at the ELF (primary screen P1, dose response C2)
# Assay type: biochemical, E. coli
# Source text: The biological function of SurA is to bind and to keep outer membrane proteins that have reached the periplasm in an unfolded but folding-competent state. The inventors' assay is based on this interaction and uses firefly Luciferase (fLuc) as a non-native substrate. […] This is exploited in the assay (FIG. 3). The loss of tertiary structure of fLuc leads to the exposure of binding sites for SurA. It is known that SurA binds selectively to a special group of substrates. These substrates have in common the specific patterns of hydrophobic amino acids that are highly enriched in the beta strands of integral outer membrane proteins. These motifs are present in OMPs of all Gram-negative bacteria and in fLuc as well. Upon mild heat treatment of fLuc and its subsequent partial unfolding, fLuc is accepted as a substrate by SurA. Of note, these intermediates served as reporter substrates to determine the activity of a […] folding chaperone. […] This interaction remains stable upon temperature reduction. Next, the temperature of the assay is reduced to room temperature and luciferase activity is subsequently measured by addition of Luciferin and ATP. In conditions without SurA, fLuc will refold into its active conformation resulting in a luminescence signal.
# Of note, the SurA activity assay was performed similar at the ELF but with optimizations in regard of the higher throughput including the change of the plate format to 1536-wells. The SurA activity assay performed at the ELF contained the following steps (adapted from the QHL report provided by the ELF). First, SurA was thawed at RT and heat activated in a water bath. Next, the vial was taken out of the water bath and cooled down to RT for 30 min @ bench. Afterwards, the SurA concentration was adjusted in assay buffer to 2 μM. Noteworthy, the SurA solution was kept on ice. […] Finally, 2 μL substrate mix (180 μM Luciferin with 12 mM ATP) were added simultaneously to all wells using the Fluorometric Imaging Plate Reader (FLIPR) and the luminescence signal was measured immediately afterwards on the FLIPR (Gain 70,000). […]
# Chain of SurA (P0ABZ6 21-428): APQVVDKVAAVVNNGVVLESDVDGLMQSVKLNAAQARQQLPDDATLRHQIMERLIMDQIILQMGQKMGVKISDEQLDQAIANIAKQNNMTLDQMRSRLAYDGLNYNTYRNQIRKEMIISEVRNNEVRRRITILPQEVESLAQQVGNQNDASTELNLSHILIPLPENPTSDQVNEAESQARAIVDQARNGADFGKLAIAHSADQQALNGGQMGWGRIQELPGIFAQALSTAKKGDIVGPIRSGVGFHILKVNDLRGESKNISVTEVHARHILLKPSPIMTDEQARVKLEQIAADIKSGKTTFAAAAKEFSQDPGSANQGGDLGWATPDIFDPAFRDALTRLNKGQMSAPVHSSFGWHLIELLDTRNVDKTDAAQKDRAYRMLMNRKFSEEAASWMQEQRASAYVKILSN
compound,measurement,setting,value
CN(C)c1ccc(-c2nc3cc(NC(=O)Cn4cc5ccccc5n4)ccc3[nH]2)cc1 [QHL-24],DRC (C2) pIC50,"7 concentration steps 20 μM to 27.4 nM, n=2",5.45
same,Primary assay (P1) % Effect,"ELF library screen, 1536-well",151%
same,Primary assay (P1) Z-score,"ELF library screen, 1536-well",191.97

# From patent US20240336573A1, “COMPOUND FOR THE TREATMENT AND PROPHYLAXIS OF INFECTIOUS DISEASES” (Eberhard Karls Universität Tübingen Medizinische Fakultät, priority 2021, published 2024)
